Test results as given in ChEMBL document CHEMBL1141294, “Renierosides, cerebrosides from a marine sponge Haliclona (Reniera) sp” (2007).

Experiments:
Format in all cases: functional
Settings in all cases: read-out: ED50 (the source's name)
[1] = system: SK-OV-3; assay: Cytotoxicity against human SK-OV-3 cells
[2] = system: XF498; assay: Cytotoxicity against human XF498 cells
[3] = system: SK-MEL-2; assay: Cytotoxicity against human SK-MEL-2 cells
[4] = system: A549; assay: Cytotoxicity against human A549 cells
[5] = system: HCT-15; assay: Cytotoxicity against human HCT15 cells

Measured: EC50

CCCCCC/C=C\CCCCCCCCCCCCCCCCC[C@@H](O)C(=O)N[C@@H](CO[C@@H]1O[C@H](CO)[C@@H](O)[C@H](O)[C@H]1O)[C@H](O)/C=C/CC/C=C(C)/C=C/CCCCCCC [RENIEROSIDE B3]
> 10 µg/mL: all assays above

CCCCCCC/C=C/C(C)=C/CC/C=C/[C@@H](O)[C@H](CO[C@@H]1O[C@H](CO)[C@@H](O)[C@H](O)[C@H]1O)NC(=O)[C@H](O)CCCCCCCCCCCCCC/C=C\CCCCCCCC [RENIEROSIDE B2]
> 10 µg/mL: all assays above

CCCCCC/C=C\CCCCCCCCCCCCCCCCCC[C@@H](O)C(=O)N[C@@H](CO[C@@H]1O[C@H](CO)[C@@H](O)[C@H](O)[C@H]1O)[C@H](O)/C=C/CC/C=C/C=C/CCCCCCC [RENIEROSIDE A1]
> 10 µg/mL: all assays above

CCCCCC/C=C\CCCCCCCCCCCCCCCCCC[C@@H](O)C(=O)N[C@@H](CO[C@@H]1O[C@H](CO)[C@@H](O)[C@H](O)[C@H]1O)[C@H](O)/C=C/CC/C=C(C)/C=C/CCCCCCC [RENIEROSIDE B1]
> 10 µg/mL: all assays above

CCCCCCC/C=C/C=C/CC/C=C/[C@@H](O)[C@H](CO[C@@H]1O[C@H](CO)[C@@H](O)[C@H](O)[C@H]1O)NC(=O)[C@H](O)CCCCCCCCCCCCC/C=C\CCCCCCCC [RENIEROSIDE A3]
> 10 µg/mL: all assays above

CCCCCCC/C=C/C=C/CC/C=C/[C@@H](O)[C@H](CO[C@@H]1O[C@H](CO)[C@@H](O)[C@H](O)[C@H]1O)NC(=O)[C@H](O)CCCCCCCCCCCCCC/C=C\CCCCCCCC [RENIEROSIDE A2]
> 10 µg/mL: all assays above

CCCCCCC/C=C/C=C/CC/C=C/[C@@H](O)[C@H](CO[C@@H]1O[C@H](CO)[C@@H](O)[C@H](O)[C@H]1O)NC(=O)[C@H](O)CCCCCCCCCCCCCCCCCCCCCC [RENIEROSIDE A5]
> 10 µg/mL: all assays above

CCCCCCC/C=C/C=C/CC/C=C/[C@@H](O)[C@H](CO[C@@H]1O[C@H](CO)[C@@H](O)[C@H](O)[C@H]1O)NC(=O)[C@H](O)CCCCCCCCCCCCCCCCCCCC [RENIEROSIDE A4]
> 10 µg/mL: all assays above
